{"source": "patent US11697667B2", "about": "“Salts and polymorphs of cethromycin for the treatment of disease” (AliquantumRx, Inc., priority 2019, dated 2023)", "key": {"malaria": {"tested_on": "malaria", "test": "Mouse malaria blood stage high parasitemia parasite killing model", "format": "in vivo, mice", "source_text": "Additionally or alternatively, mouse malaria blood stage activity may be tested in a high parasitemia parasite killing model (n=5 mice/dose) to assess rate of killing and minimal dose and duration for cure as disclosed above and/or according to methods known in the art. Quantifiable endpoints may include measured activity against malaria."}, "[1]": {"tested_on": "malaria (infective sporozoites)", "test": "Liver stage activity in murine malaria model", "format": "in vivo, mice", "source_text": "Quantifiable endpoints may include measured activity against malaria."}}}
{"molecule": "CCC1OC(=O)C(C)C(=O)C(C)C(OC2OC(C)CC(NC)C2O)C(C)(OCC=Cc2cnc3ccccc3c2)CC(C)C(=O)C(C)C2NC(=O)OC12C", "note": "(centres unmarked) [M1 metabolite, N-desmethyl cethromycin]", "values": [{"measurement": "Blood stage activity relative to the activity of cethromycin chloride", "setting": "malaria", "value": "less than 30%"}, {"measurement": "Liver stage activity relative to the activity of cethromycin chloride", "setting": "[1]", "value": "less than 30%"}]}
